Test results taken from ChEMBL document CHEMBL5154881, “Discovery of First-in-Class TAK1-MKK3 Protein-Protein Interaction (PPI) Inhibitor (R)-STU104 for the Treatment of Ulcerative Colitis through Modulating TNF-α Production” (J Med Chem, 2022).
Active and inactive are the calls of the source. The calls are words filed in the database; no cut-off is given here.

Assays:
Mus musculus [1] = assay: Antiinflammatory activity against IL-10-/- C57BL/6 mouse model of ulcerative colitis assessed as inhibition ratio of IL-1beta protein expression at 1 mg/kg, IG via gavage and measured after 8 weeks by ELISA relative to control; assay type: functional; design: scale not given: the % may be the effect or the level left
Mus musculus [2] = assay: Anti-ulcerative colitis activity in IL-10-/- C57BL/6 mouse model of ulcerative colitis assessed as body weight recovery ratio at 3 mg/kg, IG via gavage for 8 weeks and measured everyday relative to control; assay type: functional
Mus musculus [3] = assay: Anti-ulcerative colitis activity in DSS-induced C57BL/6 mouse ulcerative colitis model assessed as colon length recovery ratio at 3 mg/kg, IG via gavage measured after 7 days relative to control; assay type: functional; settings: time 7 day
[4] = Toxicity in C57 mouse assessed as lung damage at 50 to 500 mg/kg, po administered daily for 14 days; assay type: organism-based; settings: in vivo, 336 h, dose 50-500 mg/kg, time 14 day
Mus musculus [5] = assay: Antiinflammatory activity against DSS-induced C57BL/6 mouse model of acute ulcerative colitis assessed as inhibition ratio of TNF-alpha mRNA expression in colon tissue at 1 mg/kg, IG via gavage measured after 7 days by RT-qPCR analysis relative to control; assay type: functional; design: scale not given: the % may be the effect or the level left; settings: time 7 day
Mus musculus [6] = assay: Antiinflammatory activity against IL-10-/- C57BL/6 mouse model of ulcerative colitis assessed as inhibition ratio of IL-23 mRNA expression in colon tissue at 3 mg/kg, IG via gavage and measured after 8 weeks by RT-qPCR analysis relative to control; assay type: functional; design: scale not given: the % may be the effect or the level left
[7] = n-Octanol/water partition coefficient, logP of the compound incubated for 24 hrs by HPLC analysis; assay type: physicochemical
RAW264.7 [8] = assay: Inhibition of MKK3-p38-elF4E signaling pathway in mouse RAW264.7 cells assessed as inhibition of LPS-induced p38 phosphorylation treated for 1.5 hrs followed by LPS treatment for 1 hr by Western blot analysis; assay type: cell-based; settings: dose 3.125-12.5 µmol/L, time 2.5 hrs, DDE = dose-dependent effect
Mus musculus [9] = assay: Anti-ulcerative colitis activity against DSS-induced ulcerative colitis C57BL/6 mouse model assessed as reduction in DAI score at 10 mg/kg, IG via gavage administered for 7 days and measured everyday (reference value: 4.0); assay type: functional; settings: time 7 day
RAW264.7 [10] = assay: Inhibition of MKK3-p38-elF4E signaling pathway in mouse RAW264.7 cells assessed as reduction in LPS-induced elF4E phosphorylation treated for 1.5 hrs followed by LPS treatment for 1 hr by Western blot analysis; assay type: cell-based; settings: dose 3.125-12.5 µmol/L, time 2.5 hrs, DDE = dose-dependent effect
Mus musculus [11] = assay: Antiinflammatory activity against IL-10-/- C57BL/6 mouse model of ulcerative colitis assessed as inhibition ratio of IL-1beta protein expression at 3 mg/kg, IG via gavage and measured after 8 weeks by ELISA relative to control; assay type: functional; design: scale not given: the % may be the effect or the level left
Mus musculus [12] = assay: Anti-ulcerative colitis activity in IL-10-/- C57BL/6 mouse model of ulcerative colitis assessed as body weight recovery ratio at 1 mg/kg, IG via gavage for 8 weeks and measured everyday relative to control; assay type: functional
Mus musculus [13] = assay: Antiinflammatory activity against IL-10-/- C57BL/6 mouse model of ulcerative colitis assessed as inhibition ratio of TNF-alpha mRNA expression in colon tissue at 10 mg/kg, IG via gavage and measured after 8 weeks by RT-qPCR analysis relative to control; assay type: functional; design: scale not given: the % may be the effect or the level left
[14] = Cmax in 12 hr starved C57 mouse at 30 mg/kg, po measured for 0.083 to 24 hrs post-dose by LC-MS-MS analysis; assay type: ADME, organism-based; design: dose 30 mg/kg, time 0.083-24 hrs, route po; settings: in vivo
Mus musculus [15] = assay: Antiinflammatory activity against DSS-induced C57BL/6 mouse model of acute ulcerative colitis assessed as inhibition ratio of IL-6 mRNA expression in colon tissue at 1 mg/kg, IG via gavage measured after 7 days by RT-qPCR analysis relative to control; assay type: functional; design: scale not given: the % may be the effect or the level left; settings: time 7 day
[16] = AUC (0 to t) in 12 hr starved C57 mouse at 30 mg/kg, po measured for 0.083 to 24 hrs post-dose by LC-MS-MS analysis; assay type: ADME, organism-based; design: time upper 24 hrs, dose 30 mg/kg, time lower 0.083 hrs, route po; settings: in vivo
Mus musculus [17] = assay: Antiinflammatory activity against DSS-induced C57BL/6 mouse model of acute ulcerative colitis assessed as inhibition ratio of TNF-alpha mRNA expression in colon tissue at 3 mg/kg, IG via gavage measured after 7 days by RT-qPCR analysis relative to control; assay type: functional; design: scale not given: the % may be the effect or the level left; settings: time 7 day
RAW264.7 [18] = assay: Inhibition of TAK1-MKK3 protein-protein interaction in LPS-treated mouse RAW264.7 cells assessed as reduction in TAK1 levels at 3.13 to 12.5 umol/L incubated for 30 mins by immunoprecipitation method; assay type: cell-based; settings: dose 3.13-12.5 µmol/L
Mus musculus [19] = assay: Antiinflammatory activity against IL-10-/- C57BL/6 mouse model of acute ulcerative colitis assessed as decrease in serum TNF-alpha levels administered intragastrically via gavage measured after 8 weeks by ELISA; assay type: functional, organism-based; settings: dose 3-10 mg/kg, route ig, DDE = dose-dependent effect
[20] = Apparent volume of distribution in 12 hr starved C57 mouse at 5 mg/kg, iv measured for 0.083 to 24 hrs post-dose by LC-MS-MS analysis; assay type: ADME, organism-based; settings: in vivo, time 0.083-24 hrs, read-out: Vz
Mus musculus [21] = assay: Antiinflammatory activity against IL-10-/- C57BL/6 mouse model of ulcerative colitis assessed as inhibition ratio of IL-23 mRNA expression in colon tissue at 10 mg/kg, IG via gavage and measured after 8 weeks by RT-qPCR analysis relative to control; assay type: functional; design: scale not given: the % may be the effect or the level left
[22] = Half life in 12 hr starved C57 mouse at 30 mg/kg, po measured for 0.083 to 24 hrs post-dose by LC-MS-MS analysis; assay type: ADME, organism-based; settings: in vivo, time 0.083-24 hrs
Mus musculus [23] = assay: Anti-ulcerative colitis activity against DSS-induced ulcerative colitis C57BL/6 mouse model assessed as body weight recovery rate at 3 mg/kg, IG via gavage administered for 7 days and measured everyday relative to control; assay type: functional; settings: time 7 day
[24] = target: T1, Dual specificity mitogen-activated protein kinase kinase 3 (Homo sapiens) (UniProt P46734); assay: Binding affinity to CM5 chip immobilized human MKK3 (20 to 347 residues) expressed in Escherichia coli BL21 (DE3) assessed as association constant, Ka by surface plasmon resonance analysis
T1 sequence (whole entry): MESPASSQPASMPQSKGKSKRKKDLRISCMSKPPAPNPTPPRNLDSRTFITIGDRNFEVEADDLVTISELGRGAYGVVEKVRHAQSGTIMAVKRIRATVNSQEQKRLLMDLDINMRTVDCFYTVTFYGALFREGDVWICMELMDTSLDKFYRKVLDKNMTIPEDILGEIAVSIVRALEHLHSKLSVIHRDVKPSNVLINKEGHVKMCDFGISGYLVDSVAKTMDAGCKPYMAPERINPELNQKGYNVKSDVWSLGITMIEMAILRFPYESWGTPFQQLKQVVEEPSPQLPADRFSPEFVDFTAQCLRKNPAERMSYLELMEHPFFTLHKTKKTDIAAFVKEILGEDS

Mus musculus [25] = assay: Antiinflammatory activity against IL-10-/- C57BL/6 mouse model of ulcerative colitis assessed as inhibition ratio of TNF-alpha protein expression at 10 mg/kg, IG via gavage and measured after 8 weeks by ELISA relative to control; assay type: functional; design: scale not given: the % may be the effect or the level left
Mus musculus [26] = assay: Antiinflammatory activity against IL-10-/- C57BL/6 mouse model of ulcerative colitis assessed as inhibition ratio of IL-6 mRNA expression in colon tissue at 3 mg/kg, IG via gavage and measured after 8 weeks by RT-qPCR analysis relative to control; assay type: functional; design: scale not given: the % may be the effect or the level left

COc1ccc([C@H]2CC(=O)c3cc(OC)cc(OC)c32)cc1
Activity (Mus musculus [1]): 40.1%
Activity (Mus musculus [2]): 14.8%
Activity (Mus musculus [3]): 51.5%
Activity [4]: Non-Toxic
Activity (Mus musculus [5]): 68.6%
Activity (Mus musculus [6]): 51.7%
logP at 24 h [7]: 2.01
inhibition (RAW264.7 [8]): Dde
Activity (Mus musculus [9]): 2.2
inhibition (RAW264.7 [10]): Dde
Activity (Mus musculus [11]): 50%
Activity (Mus musculus [12]): 13.6%
Activity (Mus musculus [13]): 68.5%
Cmax [14]: 2290 ng/mL
Activity (Mus musculus [15]): 32.8%
AUC(0-t) [16]: 9900 ng·h/mL
Activity (Mus musculus [17]): 73.2%
inhibition (RAW264.7 [18]): Active
Activity (Mus musculus [19]): Dde
Vd [20]: 7.76 L/kg
Activity (Mus musculus [21]): 58.2%
half-life [22]: 8.67 h
Activity (Mus musculus [23]): 22.7%
Ka [24]: 5.08 10^4/Ms
Activity (Mus musculus [25]): 61.9%
Activity (Mus musculus [26]): 37.1%
